According to a melting point compilation (Tetko et al.; mined from patent text by program, amines drawn as free bases though some values may be those of a salt):

Row | melting point [°C] | Structure (SMILES)
1 | 249 to 253 | CC(C)(C)c1ccc2cc3cc(C(C)(C)C)ccc3cc2c1
2 | 267 | O=c1[nH]c2cc(Cl)ccc2n1C1CCN(CCCn2c(=S)[nH]c3ccccc32)CC1
3 | 220 to 221 | O=C(O)C1=Cc2ccc(Cl)c(Cl)c2OC1C(F)(F)F (configuration not stated)
4 | 42 to 44 | COCc1cc(N(C)C)ncn1
5 | 76 to 79 | CCCC=Cc1c(C(C)C)nc(C(C)C)c(CO)c1-c1ccccc1C
6 | 157 to 158 | Cc1oc(-c2ccccc2)nc1COc1ccc(COc2cccc(CCC(=O)O)c2)cc1
7 | 248 to 249 | COc1ccc(C(=O)O)c2ccc(C(F)(F)F)nc12
8 | 158 to 160 | O=[N+]([O-])c1ccc(C(O)c2ncco2)c(Cl)c1 (configuration not stated)
9 | 278 to 280 | Cc1cc(C#N)cc(C(=O)c2c(C(C)C)c(=O)[nH]c(=O)n2C(C)C)c1
10 | 113 to 117 | N#CCOc1ccc2cc(-c3csc(-c4ccccc4)n3)ccc2c1
11 | 46 to 47 | C=CC1OC(OC)C(OCc2ccccc2)C(OCc2ccccc2)C1OCc1ccccc1 (configuration not stated)
12 | 124 to 125 | N#CCCOc1ccccc1OCCC#N
13 | 118 to 120 | COc1ccccc1CC(O)(c1ccccc1)C1CCN(CCCC(=O)c2ccc(C(C)(C)C)cc2)CC1 (configuration not stated)
14 | 138 to 139 | O=C(c1ccc2nonc2c1)N1CC2CCC1CC2
15 | 107 to 110 | C[C@H](N[C@@H]1CNC(=O)C12CC2)c1ccccc1
16 | 299 to 300 | CCc1[nH]n(C2CCCC2)c2nc(-c3cccc(OCC(=O)O)c3)nc(=O)c1-2
17 | 147 to 149 | O=C(c1ccc([N+](=O)[O-])cc1)N1Cc2ccccc2Sc2ccccc21
18 | 203 to 204 | CNC(=O)Nc1cc(C#N)ccn1
19 | 202 to 203 | Nc1ncc(-c2cnc3ccc(-c4ccc(OCC5(NC(=O)OCc6ccccc6)COC5)cc4)nn23)cc1C(F)(F)F
20 | 133 to 134 | CSc1ccc(C(=O)C=Cc2ccncc2)cc1
21 | 222 to 224 | CNC(=O)c1cc(Oc2ccc(NC(=O)Nc3ccc4c(c3)C(F)(F)OC(F)(F)O4)c(S(C)(=O)=O)c2)ccn1
22 | 150 to 153 | CC1=C(C(=O)OCCCl)C(c2cccc([N+](=O)[O-])c2)C(C(=O)OCC(C)C)=C(C)N1 (configuration not stated)
23 | 125 to 127 | COC(=O)[C@@H]1CSC(=S)N1CC(C)(C)SCc1ccc(OC)cc1

Row | melting point [°C] | Structure (SMILES)
24 | 175 to 178 | C=CCNc1nnc(-c2ccc(F)c(F)c2Nc2ccc(I)cc2F)o1
25 | 166 to 167 | O=C(OCc1ccccc1)N1CCc2c(sc3nc(CCl)c(Cl)c(-c4ccc(OCC(F)(F)F)cc4)c23)C1
26 | 95 to 98 | Clc1cc(-c2ccccc2)ncn1
27 | 130 to 131 | COC(=O)c1cc(OCc2cn(-c3ccc(C(F)(F)F)cn3)nc2C)nn1C
28 | 173 to 174 | CCOC(=O)CCc1cc(O)nn1C1CCCCC1
29 | 111 to 113 | COc1nc2ccccc2cc1NC(=O)N1CCN(c2cccc(OC(C)C)c2)CC1
30 | 230 to 232 | CC(C)(C)c1cc(-c2nc(O)ns2)cc(C(C)(C)C)c1O
31 | 179 to 180 | O=C(NC1CC1)c1cccc(-c2ccc3c(c2)C(Oc2ccc(Cl)cc2Cl)CC3)c1 (configuration not stated)
32 | 204 to 207 | COc1ccc(C(C)=NNc2ccc(C3=NNC(=O)CC3)cc2)cc1
33 | 190 | O=c1[nH]c2ccccc2n1CCCCCCN1CCN(C(c2ccccc2)c2ccccc2)CC1
34 | 109 to 110 | Oc1cccc2c1ccn2CCCCCc1ccccc1
35 | 185 | CCOCCOc1nc(NC(C)=O)nc2ccc(Cl)nc12
36 | 203 to 204 | O=C(CBr)Nc1ccc(Br)cc1C(=O)O
37 | 89 to 90 | COc1ccc(C2=NN(CC(=O)c3ccc4ccccc4c3)C(=O)[C@H]3CCCC[C@@H]23)cc1OC (relative stereo)
38 | 84 to 86.5 | COc1ccc([C@@H]2CCCC[C@@H]2[N+](=O)[O-])cc1OC (racemic)
39 | 145 to 150 | O=C(O)c1cc2cc(Cl)ccc2nc1N[C@@H](Cc1ccc(Oc2ccc(Br)cn2)cc1)C(=O)O
40 | 93 to 95 | ICCCOc1ccc(OCCCI)cc1
41 | 188 to 190 | Cc1ccc(C)c(-c2cn(C)cc(-c3ccccc3)c2=O)c1
42 | 144 to 145 | CCOC(=O)c1cc([N+](=O)[O-])c(=O)[nH]c1C(=O)OCC
43 | 164 to 165 | O=C1C(Cc2ccccc2)SC(=S)N1c1nccs1 (configuration not stated)
44 | 118 to 120 | O=C1C2=CSCCN2C(=O)N1c1ccc(Cl)cc1F
45 | 172 to 174 | CCc1ccc2nc(C)c(S(=O)(=O)NC(=O)Nc3nc(OC)cc(OC)n3)n2n1
46 | 90 to 91 | COc1c(C(C)(C)C)cc(N2CCCC2=O)cc1C(C)(C)C

Row | melting point [°C] | Structure (SMILES)
47 | 51 | O=Cc1cc(Cl)c2c(c1)CCCO2
48 | 122 to 124 | COC(=O)[C@H](c1ccccc1Cl)N1CCc2sc(OC(=O)C=Cc3ccccc3)cc2C1
49 | 136 to 137 | CNCCOc1ccc(NC(=O)c2ccc(N3CCNCC3)cc2)c(C)c1
50 | 136 to 137 | O=c1c(OCCCCl)c(-c2ccc(OCc3ccccc3)c(OCc3ccccc3)c2)oc2cc(OCc3ccccc3)ccc12
51 | 57 to 58 | BrCCC1(c2ccccc2)OCCO1
52 | 245 to 247 | O=C(Cc1ccc(O)c([N+](=O)[O-])c1)N[C@H]1C[C@H](C(=O)O)Nc2cc(Cl)cc(Cl)c21 (relative stereo)
53 | 164 to 167 | O=C1C2CCCC2=Nc2ccccc2N1Cc1ccc2ccccc2c1 (configuration not stated)
54 | 107 to 109 | CC(C)C(NC(=O)C(C)(C)C)C(C)C
55 | 155 to 158 | CC(=O)N1CCN(c2c(N[C@@H](Cc3ccccc3)C(=O)O)c(=O)c2=O)CC1
56 | 200 to 203 | CC(=O)OC(c1ccc(NC(=O)c2ccc(-c3ccc(Cl)cc3)cc2)cc1)C1CCCNC1 (configuration not stated)
57 | 171 to 172 | COC(=O)c1ccc(Cn2ncc3ccc([N+](=O)[O-])cc32)cc1
58 | 216 to 217 | O=c1[nH]cc(Cc2cccnc2)cc1[N+](=O)[O-]
59 | 172 to 173 | Cc1oc(-c2ccccc2)nc1COc1ccc(Cn2cc(CCC(=O)O)c(-c3cccs3)n2)cc1
60 | 271 | Cc1ccc(NS(=O)(=O)c2ccc(-c3cnc4[nH]c(CCC5CCCCC(=S)N5)nc4c3)cc2)c(F)c1 (configuration not stated)
61 | 49 to 52 | CCOC(=O)C=Cc1ccc(OC)nc1
62 | 104 to 106 | CCCCCCCNC(=O)CCCCSc1nc(-c2ccccc2)c(-c2ccccc2)[nH]1
63 | 146 | O=[N+]([O-])c1ccc(Cl)cc1NC12CC3CC(CC(C3)C1)C2
64 | 140 to 141 | CCOc1nn(Cc2ccc(OCc3ccc(-c4ccccc4)nc3)cc2)cc1CCC(=O)O
65 | 210 to 211 | COc1ccc(-c2cc3cc(F)c(F)cc3[nH]2)cc1N
66 | 164 to 168 | Cc1nc(N2CCc3ccccc3CC2)c(C#N)c(=O)n1CCO
67 | 203 to 205 | CCCOc1ccc(-c2ccc3c(c2)C=C(C(=O)Nc2ccc(CN(C)C4CCOCC4)cc2)CCS3(=O)=O)cc1OCC
68 | 50 to 51 | NS(=O)(=O)c1ccc(-c2c(-c3ccccc3)noc2COCC(F)(F)C(F)(F)C(F)(F)CO)cc1
69 | 123 to 125 | COC(=O)C(=O)c1ccc(OCCOc2ccc3ccccc3c2)cc1Cl

Row | melting point [°C] | Structure (SMILES)
70 | 99 to 101 | C#CCOCc1cc(-c2ccc(C(F)(F)F)n(C)c2=O)c(F)cc1Cl
71 | 177 to 180 | COc1ccc(-c2nc(N3CCOCC3)c3sc(CN(C)c4ncc(C(=O)NO)cn4)cc3n2)cn1
72 | 157 to 159 | CCCN(C(=O)COc1c(Cl)cccc1Cl)C1CCc2c(ccc(O)c2O)C1 (configuration not stated)
73 | 241 to 242 | Cc1ccc2[nH]c(=O)cc(CCN3CCN(c4cccc5ccccc45)CC3)c2c1
74 | 179 | CSc1cncc(O)c1
75 | 134 to 135 | CNC(=O)N1CC(Oc2cccc(Br)c2)C1
76 | 174 to 176 | O=C(O)c1cc2cc(Cl)ccc2nc1N[C@@H](Cc1ccc([N+](=O)[O-])cc1)C(=O)O
77 | 176 to 177 | COc1ccc(CSc2nnc(-c3ccnc(NC(=O)CCc4ccccc4)c3)o2)cc1C#N
78 | 209 to 210 | Cc1ccccc1C(=O)Nc1ccc2oc3c(c2c1)CCCC3
79 | 84 to 87 | CCOC(=O)C(Oc1cc(N)c(Cl)cc1C(=O)NCCN(CC)CC)c1ccccc1 (configuration not stated)
80 | 105 to 107 | C#Cc1ccc2c(c1)C(C)(C)CCS2=O (configuration not stated)
81 | 209 to 210 | Cc1ccc2nc(-c3cc(C(F)(F)F)nn3-c3ccc(S(C)(=O)=O)cc3)oc2c1
82 | 190 to 193 | CC(=O)c1c(O)cccc1OCCCCCOc1ccc2cc(C(=O)O)ccc2c1
83 | 164 to 166 | CCn1nc(C(F)(F)F)c(C(=O)O)c1Cl
84 | 288 to 290 | N=C(N)NC1=NC(=O)C(=Cc2cccc(-c3cc(F)c(O)c(C45CC6CC(CC(C6)C4)C5)c3)c2)S1
85 | 145 to 147 | CCS(=O)(=O)c1ccc(C(=O)NCc2ccc3c(c2)C(=O)N(C2(C)CCC(=O)NC2=O)C3=O)nc1 (configuration not stated)
86 | 68 | Cc1nc(-c2ccccc2)c(C)c(=O)o1
87 | 201 to 205 | CN1CCN(CCC2C(=O)NC(c3ccc(Cl)cc3)c3ccccc32)CC1 (configuration not stated)
88 | 75 to 76 | CNC1=NN(c2cccc(Cl)c2)CC1C (configuration not stated)
89 | 103 | Fc1ccc(OCc2cccc(Oc3ccnc(Cl)c3)n2)cc1
90 | 129 to 131 | CC(C)(C)c1ccc(C(O)CCCN2CCC(OC(c3ccccc3)c3ccccc3)CC2)cc1 (configuration not stated)
91 | 116 to 117 | OCCc1nccn1CCCc1ccc(O)cc1

Row | Structure (SMILES) | melting point [°C]
92 | COOc1ccc(S(=O)(=O)c2cnc(C)nc2Cc2c(C)cc(C)cc2C)cc1 | 150 to 152
93 | N#Cc1nn(-c2c(Cl)cc(C(F)(F)F)cc2Cl)c(NCc2cnccn2)c1S(=O)C(F)(F)F (configuration not stated) | 169
94 | CN(C)C1(c2ccccc2)CCC2(OCCc3c2[nH]c2ccccc32)C(Sc2ccccc2)C1 (configuration not stated) | 228 to 233
95 | Cc1cccc(C2=CCN(CCCn3c(=O)[nH]c4cccc(C)c4c3=O)CC2)n1 | 200 to 203
96 | CC(C)(C)C(=O)c1c(CC(C)(C)C(=O)O)n(Cc2ccc(Cl)cc2)c2ccc(OCc3ccc4occc4n3)cc12 | 160
97 | CCCN(CCC)C1Cc2c(C(C)=O)ccc3c2C(CN3)C1 (single isomer, unassigned; (+)) | 76 to 77
